Data on five compounds can be found in patent publication US4198415A, “Prolactin inhibiting octahydro pyrazolo[3,4-g]quinolines” (Eli Lilly and Company, priority 1979, dated 1980).

Data set [1] can be described thus: intraperitoneal lethality (LD50). The data set is classed as in vivo. As to the method:
In using the compounds of this invention to inhibit prolactin secretion or to treat Parkinson's syndrome or for other pharmacologic action, a compound according to Formula Ia or Ib above in which R is C1 -C3 alkyl or allyl and R^1 is H or CH2 X where X is OCH3, SCH3, SO2 CH3, CN or CONH2, or a salt thereof with a pharmaceutically-acceptable acid, is administered to a subject suffering from Parkinsonism or in need of having his or her prolactin level reduced in an amount effective to treat Parkinsonism or to reduce prolactin. Oral administration is preferred. If parenteral administration is used, the injection is preferably by the subcutaneous route using an appropriate pharmaceutical formulation. […] In particular, with intravenous or intramuscular administration, a water soluble pharmaceutically-acceptable salt is employed. For oral administration, the compound either as the free base or in the form of a salt thereof, can also be mixed with standard pharmaceutical excipients and loaded into empty telescoping gelatin capsules or pressed into tablets. The oral dosage range is from about 0.01 to 10 mg./kg. of mammalian weight and the parenteral dose range from about 0.0025 to 2.5 mg./kg.

Another data set has as its system prolactin. Nature of the data set: inhibition of prolactin secretion in reserpine-treated male rats (serum prolactin). The conditions noted are these: intraperitoneal, one hour after treatment, reserpine-pretreated rats. The format is in vivo, rat (Sprague-Dawley). As to the method:
Adult male rats of the Sprague-Dawley strain weighing about 200 g. were housed in an air-conditioned room with controlled lighting (lights on 6 a.m.-8 p.m.) and fed lab chow and water ad libitum. Each rat received an intraperitoneal injection of 2.0 mg. of reserpine in aqueous suspension 18 hours before administration of the test drug. The purpose of the reserpine was to keep prolactin levels uniformly elevated. The compounds under test were dissolved in 10 percent ethanol, and were injected intraperitoneally at doses of 50 mcg/kg and 0.5 and 5 mg/kg. Each compound was administered at each dose level to a group of 10 rats, and a control group of 10 intact males received an equivalent amount of 10 percent ethanol. One hour after treatment, all rats were killed by decapitation, and 150 μl aliquots of serum were assayed for prolactin.

For data set [2], the system named is 6-hydroxydopamine-lesioned rats. Nature of the data set: turning behavior in 6-hydroxydopamine-lesioned rats (rat turning test, Parkinsonism). The data set is classed as in vivo. The conditions noted are these: intraperitoneal; for Average Number of Turns/rat: first 15 minutes after end of latency period. As to the method:
In this test, nigroneostriatal-lesioned rats are employed, as prepared by the procedure of Ungerstedt and Arbuthnott, Brain Res, 24, 485 (1970). A compound having dopamine agonist activity causes the rats to turn in circles contralateral to the side of the lesion. After a latency period, which varies from compound to compound, the number of turns is counted over a 15-minute period.
The compounds were dissolved in water and the aqueous solution injected into the rat by the intraperitoneal route at dose levels of 1 mg/kg. and 100 mcg/kg.

Where a name gives a salt, the structure may show the parent alone.

Consider `CCCN1CCC[C@H]2Cc3[nH]ncc3C[C@@H]21` (relative stereo) [trans-dl-5-n-propyl-4,4a,5,6,7,8,8a,9-octahydro-1H and 2H-pyrazolo[3,4-g]quinoline dihydrochloride], for which the LD50 (usually the dose at which mortality reaches 50%) in data set [1] (in vivo, ip, intraperitoneal) lay in the range of 100 to 300 mg/kg. Moreover, the figures for the deaths result in data set [1] (intraperitoneal dosages of 300 mg./kg.) and in data set [1] (intraperitoneal dosages of 10-100 mg./kg.) were “fatal” and “no deaths”, respectively.

Regarding `CCCN1CC(CSC)CC2Cc3n[nH]cc3CC21` (mixture of isomers) [trans-dl-5-n-Propyl-7-methylmercaptomethyl-4,4a,5,6,7,8,8a,9-octahydro-1H and 2H-pyrazolo[3,4-g]quinoline], the results for the “Percent Prolactin Inhibition” value with prolactin (0.5 mg/kg) and with prolactin (5 mg/kg) were 48% and 73%, respectively.

As to `C=CCN1CCC[C@H]2Cc3n[nH]cc3C[C@@H]21` (relative stereo) [Trans-dl-5-allyl-4,4a,5,6,7,8,8a,9-octahydro-2-H(and 1H)-pyrazolo[3,4-g]quinoline dihydrochloride], the results for the “% of Rats Exhibiting Turning Behavior” value in data set [2] (1 mg./kg.) and in data set [2] (100 mcg./kg.) were 100% and 0%, respectively. Moreover, the “Average Number of Turns/rat” value in data set [2] (1 mg./kg.) is recorded as 165 turns/rat; in data set [2] (100 mcg./kg.), 0 turns/rat.

On to `CN1CCC[C@H]2Cc3n[nH]cc3C[C@@H]21` (relative stereo) [trans-dl-5-methyl-4,4a,5,6,7,8,8a,9-octahydro-1H-(and 2H)-pyrazolo[3,4-g]quinoline dihydrochlorides], for which the “Percent Prolactin Inhibition” value in the data set on prolactin (0.5 mg/kg) was 42%; with prolactin (5 mg/kg), 84%.

For the compound `CCCN1CC(CSC)CC2Cc3n[nH]cc3CC21` (mixture of isomers) [trans-dl-5-n-Propyl-7-methylmercaptomethyl-4,4a,5,6,7,8,8a,9-octahydro-1H and 2H-pyrazolo[3,4-g]quinoline dihydrochloride], the “% of Rats Exhibiting Turning Behavior” value stood at 100% in data set [2] (1 mg./kg.) and 50% in data set [2] (100 mcg./kg.). In addition, the figures for the “Average Number of Turns/rat” value in data set [2] (1 mg./kg.) and in data set [2] (100 mcg./kg.) were 81 turns/rat and 67 turns/rat, respectively.
